Assay results as given in US4396623A, “Carbocyclic analogs of uracil nucleosides as antiviral agents” (priority 1981, dated 1983).
In brackets after ≈: the same amount, converted by molar mass. Entries after “also recorded” stand apart in the source; their conditions may differ. Where two headings read alike, the source gives them in different places. Each block holds one compound with its values, some of them ahead of it.

Legend:
[1] = tested on: herpes simplex virus, Type 1; test: Antiviral test against herpes simplex virus, Type 1, growing in rabbit kidney cells (Virus Rating, MIC50); type: cell-based; parameters: key to Virus Rating (VR) / VR: Ehrlich weighted score; 0.5-0.9 marginal-moderate, ≥1 definite activity; conditions: for VR: same type of test against herpes simplex virus (Table 1); for Antiviral activity against herpes simplex virus, in words: same type of test as Table 1
Experimental: (§1) Carbocyclic analogs of 5-substituted-2'-deoxyuridines were tested for antiviral activity against viruses that replicate in mammalian cells growing in cell culture. The Virus Rating (VR) is a weighted measurement of antiviral activity determined by the method of Ehrlich et al, Annals of the New York Academy of Science, volume 130, pages 5-16, 1965. In tests carried out by this method, a VR of 0.5-0.9 indicates marginal to moderate antiviral activity and a VR equal to or greater than 1 indicates definite antiviral activity. The higher the value of VR, the greater is the antiviral activity. The MIC50 (minimum inhibitory concentration, 50%) is the concentration of a test compound required for 50% inhibition of virus-induced cytopathogenic effect.
The results of antiviral tests, performed as described in Example 7, of 5-iodo-2'-deoxyuridine (IdUrd), the carbocyclic analog (Example 3) of 5-iodo-2'-deoxyuridine, 9-β-D-arabinofuranosyladenine (Ara-A), the carbocyclic analog (Example 2) of 5-bromo-2'-deoxyuridine, the carbocyclic analog (Example 5) of 5-(methylamino)-2'-deoxyuridine and the carbocyclic analog of thymidine are summarized in Table 3.

[2] = tested on: Type 2 herpes simplex virus; test: Antiviral test against Type 2 herpes simplex virus (Virus Rating); type: cell-based; conditions: for VR: Type 2 herpes simplex virus
Experimental: as §1

varicella-zoster virus = test: Inhibition of varicella-zoster virus replication in human foreskin fibroblasts (virus yield-reduction); type: cell-based
Description: (§2) Carbocyclic analogs of 5-substituted-2'-deoxyuridines may inhibit the replication of other DNA viruses. Thus, the carbocyclic analog (Example 3) of 5-iodo-2'-deoxyuridine is active against varicella-zoster virus replicating in human foreskin fibroblasts (Table 2). […] The IdUrd analog (Example 3) was also active against murine leukemia virus, an RNA tumor virus.
Virus titers are expressed in terms of log10 CCID50 (cell
culture infectious dose, 50%) units per ml., and the reduction in virus
yield after drug treatment is expressed as a logarithm.

murine leukemia virus = test: Inhibition of murine leukemia virus replication in mouse embryo cells; type: cell-based
Description: as §2

herpes simplex virus [3] = test: Activity against intracerebral herpes simplex virus in mice (herpes encephalitis); type: in vivo; conditions: for % of Infected Mice that lived 10 days or longer / % of Infected Mice that lived less than six days / Median Survival Time: treated seven days, 10x LD50 intracerebral; for Activity against herpes encephalitis in mice, in words: intracerebral herpes simplex virus
Experimental: Mice were inoculated intracerebrally with ten times the LD50 of herpes simplex virus. (The LD50 is the amount of virus that would be lethal to 50% of the inoculated animals.) Some of these virus-infected mice were treated for seven days with the carbocyclic analog (Example 3) of IdUrd, and some of these virus-infected mice were not treated and served as a control group.

herpes simplex virus [4] = conditions: F. M. Schabel, Jr., Chemotherapy 13, 321-328, 1968; listed as IdUrd; cited from earlier work
[5] = Table 1, rabbit kidney cells, VR 0.5-0.9 marginal to moderate, >=1 definite antiviral activity
[6] = Human alphaherpesvirus 1, Table 3 comparison, read-out: MIC50
[7] = Human alphaherpesvirus 1, Table 1, 50% inhibition of virus-induced cytopathogenic effect, rabbit kidney cells, read-out: MIC50 (minimum inhibitory concentration, 50%)

SMILES: O=c1[nH]c(=O)n([C@@H]2C[C@H](CO)[C@@H](O)C2)cc1F (relative stereo) [Formula I, X = F, R = R^1 = H, reference compound]
Virus Rating (VR) [1, 5]: 0
VR [1]: 0
Antiviral activity against herpes simplex virus, in words [1]: not active

EC50 [1, 6]: 0.8 µg/mL (≈ 3.33 µM)
SMILES: Cc1cn([C@@H]2C[C@H](CO)[C@@H](O)C2)c(=O)[nH]c1=O (relative stereo) [Carbocyclic analog of thymidine]
Virus Rating (VR) [1, 5]: 5.4
Virus Rating (VR) ([1]; Table 3 comparison): 5.4
Antiviral activity against herpes simplex virus, in words [1]: very high activity
Activity against Type 2 herpes simplex virus, in words [2]: high activity
VR [2]: 3.2

SMILES: O=c1[nH]c(=O)n([C@@H]2C[C@H](CO)[C@@H](O)C2)cc1I (relative stereo) [Example 3, (±)-1-[(1α,3β,4α)-3-Hydroxy-4-(hydroxymethyl)cyclopentyl]-5-iodo-2,4(1H,3H)-pyrimidinedione]
EC50 ([1]; Human alphaherpesvirus 1, read-out: MIC50 (minimum inhibitory concentration, 50%), Table 1, 50% inhibition of virus-induced cytopathogenic effect, rabbit kidney cells): 0.3 µg/mL (≈ 0.852 µM)
Virus Rating (VR) [1, 5]: 7.1
Activity compared with IdUrd, in words ([1]; Table 3 tests): comparable in activity
Antiviral activity against herpes simplex virus, in words [1]: very high activity; also recorded: high activity
Activity against Type 2 herpes simplex virus, in words [2]: high activity
VR [2]: 3.4
Virus Yield Log10 CCID50 /ml (varicella-zoster virus; 32 μM): ≤ 0.5 Log10 CCID50 /ml
Virus-Induced Cytopathogenic Effects at 10 Days Postinfection, % (varicella-zoster virus; 32 μM, human foreskin fibroblasts): 0%
Virus Yield Log10 CCID50 /ml (varicella-zoster virus; 100 μM): ≤ 0.5 Log10 CCID50 /ml
Virus-Induced Cytopathogenic Effects at 10 Days Postinfection, % (varicella-zoster virus; 100 μM, human foreskin fibroblasts): 0%
Virus Yield Log10 CCID50 /ml (varicella-zoster virus; 320 μM): ≤ 0.5 Log10 CCID50 /ml
Virus-Induced Cytopathogenic Effects at 10 Days Postinfection, % (varicella-zoster virus; 320 μM, human foreskin fibroblasts): 0%
observable virus-induced cytopathogenic effects at 10 days postinfection, in words (varicella-zoster virus; 10 days postinfection): no observable virus-induced cytopathogenic effects
log reduction at 32 µM (varicella-zoster virus; Human alphaherpesvirus 3, Fibroblast, 32 μM, read-out: Log10 Reduction in Virus Titer): ≥ 4
log reduction at 100 µM (varicella-zoster virus; Human alphaherpesvirus 3, Fibroblast, 100 μM, read-out: Log10 Reduction in Virus Titer): ≥ 4
log reduction at 320 µM (varicella-zoster virus; Human alphaherpesvirus 3, Fibroblast, 320 μM, read-out: Log10 Reduction in Virus Titer): ≥ 4
Activity against varicella-zoster virus, in words (varicella-zoster virus; human foreskin fibroblasts): active
reduction in the titer of virus progeny (varicella-zoster virus; virus yield-reduction experiment): ≥ 4.0 log10
Activity against murine leukemia virus, in words (murine leukemia virus): active
Replication of murine leukemia virus in mouse embryo cells (murine leukemia virus; drug concentration of 32 μg/ml): completely inhibited
% of Infected Mice that lived 10 days or longer (herpes simplex virus [3]; 300 mg./kg.): 40%
% of Infected Mice that lived less than six days (herpes simplex virus [3]; 300 mg./kg.): 10%
Median Survival Time (herpes simplex virus [3]; 300 mg./kg.): 9.2 days
% of Infected Mice that lived 10 days or longer (herpes simplex virus [3]; 400 mg./kg.): 50%
% of Infected Mice that lived less than six days (herpes simplex virus [3]; 400 mg./kg.): 0%
Median Survival Time (herpes simplex virus [3]; 400 mg./kg.): 8.8 days
Activity against herpes encephalitis in mice, in words (herpes simplex virus [3]): active against herpes encephalitis
Activity against herpes encephalitis in mice, in words (herpes simplex virus [3]; listed as carbocyclic analog of 5-iodo-2'-deoxyuridine): active

EC50 [1, 7]: 10 µg/mL
SMILES: CC(=O)OC[C@H]1C[C@@H](n2cc(I)c(=O)[nH]c2=O)C[C@@H]1OC(C)=O (relative stereo) [Example 4, (±)-1-[(1α,3β,4α)-3-Hydroxy-4-(hydroxymethyl)cyclopentyl]-5-iodo-2,4(1H,3H)-pyrimidinedione Diacetate]
Virus Rating (VR) [1, 5]: 2.4

SMILES: Nc1ncnc2c1ncn2[C@@H]1O[C@H](CO)[C@@H](O)[C@@H]1O [9-β-D-Arabinofuranosyladenine (Ara-A), 9-β-D-arabinofuranosyladenine, reference compound]
EC50 ([1]; Human alphaherpesvirus 1, read-out: MIC50, Table 3 comparison): 9.8 µg/mL (≈ 36.7 µM)
Virus Rating (VR) (average) ([1]; Table 3 comparison, average): 2.7

EC50 [1, 7]: 92 µg/mL
SMILES: CC(=O)OC[C@H]1C[C@@H](n2cc(Br)c(=O)[nH]c2=O)C[C@@H]1OC(C)=O (relative stereo) [Example 1, (±)-5-Bromo-1-[(1α,3β,4α)-3-hydroxy-4-(hydroxymethyl)cyclopentyl]-2,4(1H,3H)-pyrimidinedione Diacetate]
Virus Rating (VR) [1, 5]: 1.3

EC50 [1, 7]: 290 µg/mL (≈ 975 µM)
SMILES: CCCCNc1cn([C@@H]2C[C@H](CO)[C@@H](O)C2)c(=O)[nH]c1=O (relative stereo) [Example 6, (±)-5-(Butylamino)-1-[(1α,3β,4α)-3-hydroxy-4-(hydroxymethyl)cyclopentyl]-2,4(1H,3H)-pyrimidinedione]
Virus Rating (VR) [1, 5]: 2.0
Antiviral activity against herpes simplex virus, in words [1]: active

SMILES: O=c1ccn([C@@H]2C[C@H](CO)[C@@H](O)C2)c(=O)[nH]1 (relative stereo) [Formula I, X = H, R = R^1 = H, (±)-1-[(1α,3β,4α)-3-hydroxy-4-(hydroxymethyl)cyclopentyl]-2,4(1H,3H)-pyrimidinedione, reference compound]
Virus Rating (VR) [1, 5]: 0
Antiviral activity against herpes simplex virus, in words [1]: not active

SMILES: Nc1cn([C@@H]2C[C@H](CO)[C@@H](O)C2)c(=O)[nH]c1=O (relative stereo) [reference compound]
VR [1]: 0.1
Antiviral activity against herpes simplex virus, in words [1]: devoid of significant activity

EC50 [1, 6]: 0.3 µg/mL (≈ 0.983 µM)
SMILES: O=c1[nH]c(=O)n([C@@H]2C[C@H](CO)[C@@H](O)C2)cc1Br (relative stereo) [Example 2, (±)-5-Bromo-1-[(1α,3β,4α)-3-hydroxy-4-(hydroxymethyl)cyclopentyl]-2,4(1H,3H)-pyrimidinedione]
Virus Rating (VR) [1, 5]: 6.2
Virus Rating (VR) ([1]; Table 3 comparison): 6.2
Antiviral activity against herpes simplex virus, in words [1]: very high activity; also recorded: high activity
Activity against Type 2 herpes simplex virus, in words [2]: high activity
VR [2]: 1.5

EC50 [1, 7]: 15 µg/mL (≈ 58.8 µM)
EC50 [1, 6]: 10 µg/mL (≈ 39.2 µM)
SMILES: CNc1cn([C@@H]2C[C@H](CO)[C@@H](O)C2)c(=O)[nH]c1=O (relative stereo) [Example 5, (±)-1-[(1α,3β,4α)-3-Hydroxy-4-(hydroxymethyl)cyclopentyl]-5-(methylamino)-2,4(1H,3H)-pyrimidinedione]
Virus Rating (VR) [1, 5]: 3.9
Virus Rating (VR) ([1]; Table 3 comparison): 4.2
Antiviral activity against herpes simplex virus, in words [1]: very high activity; also recorded: active
Activity against Type 2 herpes simplex virus, in words [2]: high activity
VR [2]: 1.2

EC50 [1, 6]: 0.3 µg/mL (≈ 0.847 µM)
SMILES: O=c1[nH]c(=O)n([C@H]2C[C@H](O)[C@@H](CO)O2)cc1I [5-Iodo-2'-deoxyuridine, 5-iodo-2'-deoxyuridine]
Activity against herpes encephalitis in mice, in words (herpes simplex virus [4]): not active; also recorded: does not exhibit this type of antiviral activity
